Data: patent publication US20160000851A1, “Bioactive Botanical Compositions and Uses Thereof” (AKZO NOBEL CHEMICALS INTERNATIONAL B.V., priority 2013, published 2016)
In brackets after ≈: the same amount, converted by molar mass. Blank lines part the entries; values can stand above or below the compound they belong to.

How the values were obtained:
Type in all cases: cell-based
IL-1α [1] = test: Inhibition of SDS-induced IL-1α release in human epidermal keratinocytes (ELISA); conditions: Keratinocyte, HEK, SDS 25 μg/ml, 16 hours, read-out: Estimated IC50 for inhibition of SDS-induced IL-1α release
IL-1α [2] = test: Inhibition of ethoxylated alcohol-induced IL-1α release in human epidermal keratinocytes (ELISA); conditions: HEK, ethoxylated alcohol 1000 μg/ml, 16 hours
Procedure: Treatment was conducted by incubation of HEK with ethoxylated alcohol (1000 μg/ml for induction of IL-1α as determined in Example 3) for 16 hours in presence of a range of concentrations of Recentia® CS, or Aspirin.
Treatment was conducted by incubation of HEK with ethoxylated alcohol (500 μg/ml for induction of IL-1α, as determined in Example 3) for 16 hours in presence of a range of concentrations of Recentia® CS, or conventional green tea preparation or conventional black tea preparation.

IL-8 [3] = test: Inhibition of SDS-induced IL-8 release in human epidermal keratinocytes (ELISA); conditions: HEK, SDS 6 μg/ml, 16 hours
Procedure: The protocols for the growth and treatment of human primary epidermal keratinocyte (HEK) cultures are as follows. HEK and all cell culture supplies were obtained from Life Technologies Co. (Carlsbad, Calif.). The cells were maintained in keratinocyte growth medium (KGM), which contains keratinocyte basal medium 154 (M154) and human keratinocyte growth supplements (HKGS). They were grown at 37° C. in an atmosphere of 5% (v/v) CO2 and used between passages from 2 to 4. For the treatment, keratinocytes were trypsinized by Trypsin 0.025%/EDTA 0.01% in Phosphate Buffered Saline, seeded in 96-well plates, and grown in KGM to about 80% confluence. The cells were then exposed to SDS (Sigma-Aldrich Co., St. Louis, Mo.) at various concentrations for about 16 hours. After incubation, the supernatants were collected, and IL-1α and IL-8 were quantified using Quantikine® ELISA (R&D Systems, Minneapolis, Minn.). […] IC50 was calculated using sigmoidal curve fitting with SigmaPlot Version 10.0 (Systat Software). […]
Treatment was conducted by incubation of HEK with SDS (25 μg/ml for induction of IL-1α or 6 μg/ml for induction of IL-8 as determined in Example 1) for 16 hours in presence of a range of concentrations of Recentia® CS, or conventional green tea preparation, or conventional black tea preparation.

IL-8 [4] = test: Inhibition of basal level non-induced IL-8 release in human epidermal keratinocytes; conditions: HEK, 16 hours
Procedure: (§1) The protocols for the growth and treatment of human primary epidermal keratinocyte (HEK) cultures are as follows. HEK and all cell culture supplies were obtained from Life Technologies Co. (Carlsbad, Calif.). The cells were maintained in keratinocyte growth medium (KGM), which contains keratinocyte basal medium 154 (M154) and human keratinocyte growth supplements (HKGS). They were grown at 37° C. in an atmosphere of 5% (v/v) CO2 and used between passages from 2 to 4. For the treatment, keratinocytes were trypsinized by Trypsin 0.025%/EDTA 0.01% in Phosphate Buffered Saline, seeded in 96-well plates, and grown in KGM to about 80% confluence. The cells were then exposed to SDS (Sigma-Aldrich Co., St. Louis, Mo.) at various concentrations for about 16 hours. After incubation, the supernatants were collected, and IL-1α and IL-8 were quantified using Quantikine® ELISA (R&D Systems, Minneapolis, Minn.). Results were presented as the mean±standard deviation. IC50 was calculated using sigmoidal curve fitting with SigmaPlot Version 10.0 (Systat Software). LDH (lactate dehydrogenase) assay (G-Biosciences, St. Louis, Mo.) was performed on all the supernatants to assess cytotoxicity.
The protocols for the growth of HEK are described under Example 1.

IL-8 [5] = test: Surfactant induction of IL-8 release in human epidermal keratinocytes; conditions: HEK, 16 hours, SDS at 6 μg/ml
Procedure: as §1
(§2) The protocols for the growth of HEK are described under Example 1. Instead of SDS, the keratinocytes were exposed to a range of concentrations of ethoxylated alcohol for about 16 hours.

IL-1α [6] = test: Surfactant induction of IL-1α release in human epidermal keratinocytes; conditions: HEK, 16 hours, SDS at 25 μg/ml
Procedure: as §1, §2

[7] = test system: human epidermal keratinocytes (HEK); test: Mildness ranking of surfactants by LDH cytotoxicity and IL-1α release in HEK; conditions: based on LDH cytotoxicity and IL-1α induction in HEK
Procedure: as §1, with “cytotoxicity. […]” for “cytotoxicity.”

IC50 (IL-1α [1]): ~230 µg/mL (≈ 1280 µM)
SMILES: CC(=O)Oc1ccccc1C(=O)O [Aspirin]
Inhibition of ethoxylated alcohol-induced IL-1α release (in words) (IL-1α [2]): failed to inhibit IL-1α release induced by the ethoxylated alcohol
Inhibition of SDS-induced IL-8 release (in words) (IL-8 [3]): did not inhibit SDS-induced release of inflammatory chemokine IL-8

SMILES: C[S+]([O-])c1ccc(-c2nc(-c3ccncc3)c(-c3ccc(F)cc3)[nH]2)cc1 (stereo not shown) [SB203580]
Inhibition of basal level non-induced IL-8 release (in words) (IL-8 [4]): inhibited SDS-induced IL-8 only

SMILES: CCCCCCCCCCCCOS(=O)(=O)[O-].[Na+] [SDS, Sodium Dodecyl Sulfate]
Induction of IL-8 release by surfactant (IL-8 [5]): significant (p<0.001) induction of IL-8
Induction of IL-1α release by surfactant (IL-1α [6]): significant (p<0.001) induction of IL-1α
Mildness/harshness rank among six tested surfactants [7]: close to the harshest surfactant
